Test results taken from US20110040086A1, “Novel Beta-Lactam Antibiotics, Methods for Their Production, and Their Use” (DRITTE PATENTPORTFOLIO BETEILIGUNGSGESELLSCHAFT MB, priority 2007, published 2011).

Assays:
Test in all cases: agar diffusion test (Test System II, multi-resistant germs)
[1] = test system: Enterococcus faecalis 769; assay type: cell-based; parameters: key: r = resistant (no detectable zone of inhibition)
Method in brief: (§1)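 Semi-synthetic compounds were tested by disc diffusion at three loadings, 10, 50 and 100 μg per disc. Bacteria at McFarland 0.5 were spread on Müller-Hinton agar II; after 18-20 h at 37 °C the inhibition zone diameter was taken.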

[2] = test system: Staphylococcus aureus 315; assay type: cell-based; parameters: key: r = resistant (no detectable zone of inhibition)
Method in brief: as §1

[3] = test system: Staphylococcus haemolyticus 535; assay type: cell-based; parameters: key: r = resistant (no detectable zone of inhibition)
Method in brief: as §1

[4] = test system: S. aureus 36881; assay type: cell-based, Staphylococcus aureus; parameters: key: r = resistant (no detectable zone of inhibition)
Method in brief: as §1

[5] = test system: S. aureus 520; assay type: cell-based, Staphylococcus aureus; parameters: key: r = resistant (no detectable zone of inhibition)
Method in brief: as §1

[6] = test system: S. aureus North Germany strain; assay type: cell-based, Staphylococcus aureus; parameters: key: r = resistant (no detectable zone of inhibition)
Method in brief: as §1

[7] = test system: S. aureus 38418; assay type: cell-based, Staphylococcus aureus
Method in brief: as §1

[8] = test system: S. aureus ATCC 6538; assay type: cell-based, Staphylococcus aureus
Method in brief: as §1

[9] = test system: S. epidermidis 847; assay type: cell-based, Staphylococcus epidermidis; parameters: key: r = resistant (no detectable zone of inhibition)
Method in brief: as §1

[10] = test system: S. epidermidis 125; assay type: cell-based, Staphylococcus epidermidis
Method in brief: as §1

[11] = Quantity n 0.02 mol (first line per ingredient)
[12] = Quantity n 0.1 mol (second line per ingredient)
[13] = Quantity n 0.2 mol (third line per ingredient)

With “3-chlorine-7-[2-(5-methyl-3,4-dioxocyclohexa-1,5-dienylamino)-2-phenyl-acetylamino]-8-oxo-5-azabicyclo[4.2.0]oct-3-ene-4-carboxylic acid [1s]” the “Diameter of zone of inhibition, Enterococcus faecalis 769” value ([1]; Quantity n 0.02) was “r”, the “Diameter of zone of inhibition, Enterococcus faecalis 769” value ([1]; Quantity n 0.1) was “r” and the “Diameter of zone of inhibition, Enterococcus faecalis 769” value ([1]; Quantity n 0.2) was “r”. For the same substance, the “Diameter of zone of inhibition, Staphylococcus aureus 315” value ([2]; Quantity n 0.02 mol) was “r”, the “Diameter of zone of inhibition, Staphylococcus aureus 315” value ([2]; Quantity n 0.1 mol) was 8 mm and the “Diameter of zone of inhibition, Staphylococcus aureus 315” value ([2]; Quantity n 0.2 mol) was 12 mm. The “Diameter of zone of inhibition” value [3, 11] was “r”, the “Diameter of zone of inhibition” value [3, 12] was “r” and the “Diameter of zone of inhibition” value [3, 13] was 10 mm. The “Diameter of zone of inhibition, S. aureas 36881” value ([4]; Quantity n 0.02 mol) was “r”, the “Diameter of zone of inhibition, S. aureas 36881” value ([4]; Quantity n 0.1 mol) was “r” and the “Diameter of zone of inhibition, S. aureas 36881” value ([4]; Quantity n 0.2 mol) was 10 mm. The “Diameter of zone of inhibition, S. aureus 520” value ([5]; Quantity n 0.02 mol) was “r”, the “Diameter of zone of inhibition, S. aureus 520” value ([5]; Quantity n 0.1 mol) was “r” and the “Diameter of zone of inhibition, S. aureus 520” value ([5]; Quantity n 0.2 mol) was 10 mm. For the same substance, the “Diameter of zone of inhibition, S. aureus North German strain” value [6, 11] was “r”, the “Diameter of zone of inhibition, S. aureus North German strain” value [6, 12] was 8 mm and the “Diameter of zone of inhibition, S. aureus North German strain” value [6, 13] was 14 mm. For the same substance, the “Diameter of zone of inhibition, S. aureas 38418” value ([7]; Quantity n 0.02) was 14 mm, the “Diameter of zone of inhibition, S. aureas 38418” value ([7]; Quantity n 0.1) was 24 mm and the “Diameter of zone of inhibition, S. aureas 38418” value ([7]; Quantity n 0.2) was 28 mm. The “Diameter of zone of inhibition, S. aureus ATCC 6538” value [8, 11] was 20 mm, the “Diameter of zone of inhibition, S. aureus ATCC 6538” value [8, 12] was 30 mm and the “Diameter of zone of inhibition, S. aureus ATCC 6538” value [8, 13] was greater than 30 mm. For the same substance, the “Diameter of zone of inhibition, S. epidermidis 847” value ([9]; Quantity n 0.02 (first line per ingredient)) was “r”, the “Diameter of zone of inhibition, S. epidermidis 847” value ([9]; Quantity n 0.1 (second line per ingredient)) was 14 mm and the “Diameter of zone of inhibition, S. epidermidis 847” value ([9]; Quantity n 0.2 (third line per ingredient)) was 18 mm. For the same substance, the “Diameter of zone of inhibition, S. epidermidis 125” value [10, 11] was 14 mm, the “Diameter of zone of inhibition, S. epidermidis 125” value [10, 12] was 22 mm and the “Diameter of zone of inhibition, S. epidermidis 125” value [10, 13] was 26 mm.
